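Results reflect a 48-hour exposure of cells in 96-well plates to compound at five concentrations. Definition used: TGI = concentration required for complete inhibition of growth.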
What was measured:
Assay in all cases: NCI-60 cell line screen, 48 h
RPMI-8226 leukemia = test system: RPMI-8226 leukemia
OVCAR-3 ovarian = test system: OVCAR-3 ovarian
OVCAR-5 ovarian = test system: OVCAR-5 ovarian
NCI/ADR-RES ovarian = test system: NCI/ADR-RES ovarian
MCF7 breast = test system: MCF7 breast
RXF 393 renal = test system: RXF 393 renal
COLO 205 colon = test system: COLO 205 colon
DU-145 prostate = test system: DU-145 prostate
CAKI-1 renal = test system: CAKI-1 renal
UO-31 renal = test system: UO-31 renal
TK-10 renal = test system: TK-10 renal
PC-3 prostate = test system: PC-3 prostate
SF-539 CNS = test system: SF-539 CNS
SF-295 CNS = test system: SF-295 CNS
786-0 renal = test system: 786-0 renal
HCT-15 colon = test system: HCT-15 colon
LOX IMVI melanoma = test system: LOX IMVI melanoma
HCC-2998 colon = test system: HCC-2998 colon
UACC-257 melanoma = test system: UACC-257 melanoma
SNB-75 CNS = test system: SNB-75 CNS
IGROV1 ovarian = test system: IGROV1 ovarian
MDA-MB-435 = test system: MDA-MB-435
SF-268 CNS = test system: SF-268 CNS
A498 renal = test system: A498 renal
HS 578T breast = test system: HS 578T breast
MALME-3M melanoma = test system: MALME-3M melanoma
MDA-MB-231 breast = test system: MDA-MB-231 breast
NCI-H522 lung = test system: NCI-H522 lung
NCI-H460 lung = test system: NCI-H460 lung
HL-60(TB) leukemia = test system: HL-60(TB) leukemia
ACHN renal = test system: ACHN renal
HOP-62 NSCLC = test system: HOP-62 NSCLC
K-562 leukemia = test system: K-562 leukemia
SNB-19 CNS = test system: SNB-19 CNS
A549 NSCLC = test system: A549 NSCLC
M14 melanoma = test system: M14 melanoma
SK-MEL-28 melanoma = test system: SK-MEL-28 melanoma
EKVX NSCLC = test system: EKVX NSCLC
NCI-H226 lung = test system: NCI-H226 lung
OVCAR-4 ovarian = test system: OVCAR-4 ovarian
NCI-H23 lung = test system: NCI-H23 lung
CCRF-CEM leukemia = test system: CCRF-CEM leukemia
SR leukemia = test system: SR leukemia
SK-MEL-2 melanoma = test system: SK-MEL-2 melanoma
HCT-116 colon = test system: HCT-116 colon
HT29 colon = test system: HT29 colon
BT-549 breast = test system: BT-549 breast
OVCAR-8 ovarian = test system: OVCAR-8 ovarian
U251 CNS = test system: U251 CNS
MOLT-4 leukemia = test system: MOLT-4 leukemia
HOP-92 NSCLC = test system: HOP-92 NSCLC
SN12C renal = test system: SN12C renal
KM12 colon = test system: KM12 colon
T-47D breast = test system: T-47D breast
UACC-62 melanoma = test system: UACC-62 melanoma
SK-OV-3 ovarian = test system: SK-OV-3 ovarian
SW-620 colon = test system: SW-620 colon
MDA-N = test system: MDA-N
SK-MEL-5 melanoma = test system: SK-MEL-5 melanoma

Cc1ccc(N=Nc2c3c(c(O)c4ccccc24)CCC(C)(C)O3)cc1
TGI (RPMI-8226 leukemia): > 100 µM
TGI (OVCAR-3 ovarian): 62.4 µM
TGI (OVCAR-5 ovarian): 34.8 µM
TGI (NCI/ADR-RES ovarian): > 100 µM
TGI (MCF7 breast): 27.2 µM
TGI (RXF 393 renal): > 100 µM
TGI (COLO 205 colon): 62.8 µM
TGI (DU-145 prostate): 26 µM
TGI (CAKI-1 renal): > 100 µM
TGI (UO-31 renal): 73.3 µM
TGI (TK-10 renal): 88.5 µM
TGI (PC-3 prostate): > 100 µM
TGI (SF-539 CNS): > 100 µM
TGI (SF-295 CNS): 28.8 µM
TGI (786-0 renal): > 100 µM
TGI (HCT-15 colon): 67.3 µM
TGI (LOX IMVI melanoma): 28.6 µM
TGI (HCC-2998 colon): 34.3 µM
TGI (UACC-257 melanoma): 23 µM
TGI (SNB-75 CNS): 36 µM
TGI (IGROV1 ovarian): > 100 µM
TGI (MDA-MB-435): 31.7 µM
TGI (SF-268 CNS): > 100 µM
TGI (A498 renal): 38.6 µM
TGI (HS 578T breast): 84.4 µM
TGI (MALME-3M melanoma): 21.6 µM
TGI (MDA-MB-231 breast): > 100 µM
TGI (NCI-H522 lung): > 100 µM
TGI (NCI-H460 lung): 32.8 µM
TGI (HL-60(TB) leukemia): 49.7 µM
TGI (ACHN renal): 62.1 µM
TGI (HOP-62 NSCLC): 36.6 µM
TGI (K-562 leukemia): > 100 µM
TGI (SNB-19 CNS): 42.7 µM
TGI (A549 NSCLC): 31.8 µM
TGI (M14 melanoma): 32.6 µM
TGI (SK-MEL-28 melanoma): 42.1 µM
TGI (EKVX NSCLC): 75.3 µM
TGI (NCI-H226 lung): > 100 µM
TGI (OVCAR-4 ovarian): 44.5 µM
TGI (NCI-H23 lung): 28.6 µM
TGI (CCRF-CEM leukemia): 39.6 µM
TGI (SR leukemia): 38.8 µM
TGI (SK-MEL-2 melanoma): 36.7 µM
TGI (HCT-116 colon): 49.2 µM
TGI (HT29 colon): 35.7 µM
TGI (BT-549 breast): 58.7 µM
TGI (OVCAR-8 ovarian): > 100 µM
TGI (U251 CNS): > 100 µM
TGI (MOLT-4 leukemia): > 100 µM
TGI (HOP-92 NSCLC): > 100 µM
TGI (SN12C renal): 28.5 µM
TGI (KM12 colon): 55.7 µM
TGI (T-47D breast): 60.3 µM
TGI (UACC-62 melanoma): 28.1 µM
TGI (SK-OV-3 ovarian): > 100 µM
TGI (SW-620 colon): > 100 µM
TGI (MDA-N): 14.1 µM
TGI (SK-MEL-5 melanoma): 15.7 µM
